From patent EP4775570A1, “CYP11A1 INHIBITOR, PREPARATION METHOD THEREFOR AND USE THEREOF” (Shenzhen Zhongge Biological Technology Co., Ltd., priority 2023, dated 2025)

Key:
[1] = PK study, intravenous and oral administration, plasma LC-MS/MS; format: in vivo; conditions: both sexes, 5 mg/kg, oral administration of 5 mpk, species not given (ICR mice or SD Rat); for bioavailability: read-out: bioavailability (F)
Method: ICR mice (male/female, total 6 animals) were assigned to two groups for oral administration and intravenous administration, respectively, with 3 mice in each group. Before administration, the animals were fasted for 10-14 hours, with water available ad lib.
SD Rat (male/female, total 6 animals) were assigned to two groups for oral administration and intravenous administration, respectively, with 3 mice in each group. Before administration, the animals were fasted for 10-14 hours, with water available ad lib.
The compounds to be tested were weighed out in accordance with intended dosage, formulated with vehicles (5% DMSO + 10% Solutol + 85% physiological saline) to dosage form at appropriate concentrations (administered intravenously and orally in rats or mice at a volume of 5 mL/kg and 10 mL/kg, respectively). The dosage form for intravenous injection is a clear solution, and the dosage form for oral administration is a clear solution or homogenous suspension.
Administration to animals was conducted through intravenous injection and oral gavage, and blood samples were collected at 0.033, 0.083, 0.25, 0.5, 1, 2, 4, 8, and 24 hours after intravenous injection, or at 0.083, 0.25, 0.5, 1, 2, 4, 6, 8, and 24 hours after oral administration. After centrifugation of whole blood samples at 4°C and 6,800g for 6 minutes, the upper layers of plasma were stored at -80°C refrigerator before analysis.
The DMSO stock solutions of the substance to be tested were diluted with methanol or acetonitrile solution to serial working solutions and added to blank plasma matrix to formulate samples for standard curve and quality control. An appropriate volume of plasma sample was added with appropriate fold of methanol or acetonitrile containing internal standards, according to response, for protein precipitation. After centrifugation of all samples at 4°C and 18,000g for 10 min, appropriate volumes of supernatant were taken for LC-MS/MS analysis.
Plasma drug concentration-time curves were plotted in accordance with tested concentrations, and pharmacokinetic parameters were calculated based on non-compartmental model using WinNonlin software, including half-life (T1/2), area under the drug concentration-time curve (AUC0-t), clearance rate (CL), steady-state distribution volume (Vss), bioavailability (F), etc.

[2] = test system: testosterone, progesterone, corticosterone; test: LC-MS detection of testosterone, progesterone and corticosterone in mouse tumors and adrenal glands; format: in vivo; conditions: mouse tumors and adrenal glands, VCaP model
Source text: • Mouse tumors were homogenized using PBS in a 1:5 ratio (tumor weight (g): PBS volume (mL), w/v); • Mouse adrenal glands were homogenized using PBS in a 1:10 ratio (adrenal gland weight (g): PBS volume (mL), w/v); • Standard sample: testosterone (LGC, C17322500), progesterone (MCE, HY-N0437), adrenal ketone (MCE, HY-B1618), and standard solution of test substance.
Experiment procedures: since the three markers, i.e., testosterone, progesterone, and adrenal ketone, are all endogenous substances and present in the blank matrix as well, PBS was alternatively used as matrix in the production of the standard curve.
Testosterone: multiple reaction monitoring (MRM) method was used for detecting the concentrations of testosterone in mouse tumors and adrenal glands. Mass spectrum: AB Sciex Triple Quad 6500+; liquid chromatography: Shimadzu 40A, column: Waters XBridge BEH C18 2.5 µm 2.1*50mm, testosterone ion pair: 289.4/97.2. Both tumor and adrenal tissues were treated with methanol as precipitant and tolbutamide as internal standard for sample pretreatment, with linear range in 50-50,000pg/mL.
Progesterone and corticosterone: multi-reaction detection method (MRM) was used for detecting the concentrations of progesterone and corticosterone in mouse tumors and adrenal glands. Mass spectrum: AB Sciex Triple Quad 6500+; liquid chromatography: Shimadzu 40A, column: Waters XSelect HSS T3 2.5 µm 2.1*50mm, progesterone ion pair: 315.4/97.2, adrenone ion pair: 347.4/121.3. For tumor tissues, acetonitrile was used as precipitant and propranolol diclofenac as internal standard for sample pretreatment, with linear ranges in 0.05-10 ng/mL of progesterone and 0.10-20 ng/mL of corticosterone. For adrenal tissues, methanol was used as precipitant and propranolol diclofenac as internal standard for sample pretreatment, with linear ranges in 5-2,500 ng/mL of progesterone and 5-2,500 ng/mL of corticosterone.

[3] = test system: VCaP castration-resistant prostate cancer subcutaneous transplant tumor model; test: In vivo pharmacodynamic study in a VCaP castration-resistant prostate cancer subcutaneous transplant tumor model; design: species or system SCID-Beige mice; conditions: 30mg/kg BID oral + prednisone 0.6mg/kg QD, castrated tumor-bearing mice, 32 days
Method: Animals: experimental male SCID-Beige mice, 6-8-weeks old or 18-22g, provided by Beijing Vital River Laboratory Animal Technology Co., Ltd.
Experiment procedures: all experimental animals were kept within specific-pathogen-free animal barrier facility, and allowed 3 days of adaptation before the experiment began. VCaP tumor cells were in vitro cultured as monolayer in DMEM complete medium (with 10% fetal bovine serum and 1% penicillin & streptomycin) at 37°C in air containing 5% CO2. Tumor cells were routinely passaged 2-3 times a week, and cells in exponential growth phase were collected and counted for tumor cell inoculation. 10x10^6 VCaP tumor cells were resuspended in 0.1ml PBS, thoroughly mixed with 0.1ml matrigel, and then inoculated subcutaneously on the right flank of each mouse to form a tumor. The tumor-bearing mice were allowed to develop to an average tumor volume of around 200mm^3 and underwent castration surgery. The tumor volumes of all mice were measured after one week of castration surgery. Suitable tumor-bearing mice were selected and assigned randomly into the following groups: blank control group, prednisone (0.6mg/kg, QD) group, abiraterone (33.73mg/kg, QD) + prednisone (0.6mg/kg, QD) group, ODM-208 (30mg/kg, BID) + prednisone (0.6mg/kg, QD) group, and the compound of the present disclosure (30mg/kg, BID) + prednisone (0.6mg/kg, QD) group. Animals in blank control group were orally administered with vehicles (0.5%MC+0.5%Tween80 and 0.5%CMCNa), and the animals in other groups were orally administered with corresponding compound. The experiment lasted for 32 days, and during the experiment, the animals in each group were measured for tumor volume and body weight twice a week.

AUC [1] [ng·h/mL]	Cmax [1] [ng/mL]	bioavailability [1] [%]	half-life ([1]; read-out: half-life (t1/2) (converted)) [h]	Structure (SMILES)	secretion of testosterone, progesterone and corticosterone in tumors and adrenal glands (in words) [2]	tumor inhibition rate TGI [3] [%]
1310	807	59	1.8	CS(=O)(=O)N1CCC(COc2coc(CN3Cc4ccccc4C3)cc2=O)CC1 [ODM-208, reference compound]	significantly inhibits	85
> 1700	> 1000	> 60		Cn1c(CN2Cc3ccccc3C2)c(F)cc(C=CC2CCN(S(C)(=O)=O)CC2)c1=O [compound 113]		
